Source: ChEMBL document CHEMBL5576128, “Discovery of Potent Isoquinolinequinone N-Oxides to Overcome Cancer Multidrug Resistance” (J Med Chem, 2024)
One block for each compound: values may come before it. Calls of active or inactive are those of the source. The rule behind the calls is not given here.

Tests used:
NCI/ADR-RES = assay: Potency index, ratio of doxorubicin GI50 to test compound GI50 for human NCI/ADR-RES cells; format: functional
[1] = system: Doxorubicin-resistant NCI-H460/R; assay: Inhibition of human Doxorubicin-resistant NCI-H460/R cells […] assessed as reduction in viability at 2 uM incubated for 48 hrs; format: functional, cell-based
[2] = system: Paclitaxel-resistant DLD1-TxR cells; assay: Effect on human Paclitaxel-resistant DLD1-TxR cells […] assessed as change in diameter at 0.35 to 0.7 uM incubated for 48 hrs; format: functional, cell-based; details: dose 0.35-0.7 µM
MCF-12A = assay: Cytotoxicity against human MCF-12A cells at 1 to 5 uM incubated for 48 hrs by SRB method; format: toxicity, cell-based; details: dose 1-5 µM
DLD-1 [3] = assay: Inhibition of human DLD-1 cells spheroid viability by CellTiter-Glo 3D viability assay; format: functional, cell-based
NCI-H460 [4] = assay: Upregulation of TP53BP1 expression in human NCI-H460 cells at high concentration incubated for 48 hrs by Western blotting analysis; format: functional, cell-based
[5] = system: Doxorubicin-resistant NCI-H460/R; assay: Effect on human Doxorubicin-resistant NCI-H460/R cells […] assessed as change in compactness at 0.35 to 0.7 uM incubated for 48 hrs; format: functional, cell-based; details: dose 0.35-0.7 µM
NCI-H460 [6] = assay: Downregulation of procaspase-3 expression in human NCI-H460 cells at 0.35 to 0.7 uM incubated for 48 hrs by Western blotting analysis; format: functional, cell-based; details: dose 0.35-0.7 µM
NCI-H460 [7] = assay: Upregulation of p53 expression in human NCI-H460 cells at 0.35 to 0.7 uM incubated for 48 hrs by Western blotting analysis; format: functional, cell-based; details: dose 0.35-0.7 µM
[8] = system: Paclitaxel-resistant DLD1-TxR cells; assay: Effect on human Paclitaxel-resistant DLD1-TxR cells […] assessed as change in circularity at 0.35 to 0.7 uM incubated for 48 hrs; format: functional, cell-based; details: dose 0.35-0.7 µM
NCI-H460 [9] = assay: Induction of cell cycle arrest in human NCI-H460 cells assessed as increase in sub-G1 phase cells at 0.35 to 0.7 uM incubated for 48 hrs by propidium iodide staining based flow cytometry analysis; format: functional; details: dose 0.35-0.7 µM
NCI-H460 [10] = assay: Effect on human NCI-H460 cells […] assessed as change in diameter at 0.35 to 0.7 uM incubated for 48 hrs; format: functional, cell-based; details: dose 0.35-0.7 µM
NCI-H460 [11] = assay: Upregulation of cyclin D1 expression in human NCI-H460 cells at 0.35 to 0.7 uM incubated for 48 hrs by Western blotting analysis; format: functional, cell-based; details: dose 0.35-0.7 µM
NCI-H460 [12] = assay: Inhibition of human NCI-H460 cells spheroid viability by CellTiter-Glo 3D viability assay; format: functional, cell-based
NCI-H460 [13] = assay: Induction of DNA damage in human NCI-H460 cells at 0.7 uM incubated for 48 hrs by Western blotting analysis; format: functional, cell-based
[14] = system: Doxorubicin-resistant NCI-H460/R; assay: Effect on human Doxorubicin-resistant NCI-H460/R cells […] assessed as change in circularity at 0.35 to 0.7 uM incubated for 48 hrs; format: functional, cell-based; details: dose 0.35-0.7 µM
NCI-H460 [15] = assay: Induction of cell cycle arrest in human NCI-H460 cells assessed as increase in G1 phase cells at 0.35 to 0.7 uM incubated for 48 hrs by propidium iodide staining based flow cytometry analysis; format: functional; details: dose 0.35-0.7 µM
NCI-H460 [16] = assay: Inhibition of cell growth in human NCI-H460 cells incubated for 48 hrs by trypan blue exclusion assay; format: functional, cell-based
NCI-H460 [17] = assay: Inhibition of cell proliferation in human NCI-H460 cells at 0.35 to 0.7 uM incubated for 48 hrs by BrdU incorporation assay; format: functional, cell-based; details: dose 0.35-0.7 µM
NCI-H460 [18] = assay: Upregulation of p21 expression in human NCI-H460 cells at 0.7 uM incubated for 48 hrs by Western blotting analysis; format: functional, cell-based
DLD-1 [19] = assay: Effect on human DLD-1 cells […] assessed as change in compactness at 0.35 to 0.7 uM incubated for 48 hrs; format: functional, cell-based; details: dose 0.35-0.7 µM
NCI-H460 [20] = assay: Effect on p62 expression in human NCI-H460 cells at 0.35 to 0.7 uM incubated for 48 hrs by Western blotting analysis; format: functional, cell-based; details: dose 0.35-0.7 µM
MRC5 = assay: Cytotoxicity against human MRC5 cells at less than 0.5 uM incubated for 48 hrs by SRB method; format: toxicity, cell-based; details: mrc5, 48 h
NCI-H460 [21] = assay: Effect on human NCI-H460 cells […] assessed as change in compactness at 0.35 to 0.7 uM incubated for 48 hrs; format: functional, cell-based; details: dose 0.35-0.7 µM
DLD-1 [22] = assay: Effect on human DLD-1 cells […] assessed as change in circularity at 0.35 to 0.7 uM incubated for 48 hrs; format: functional, cell-based; details: dose 0.35-0.7 µM
NCI-H460 [23] = assay: Effect on LC3-II expression in human NCI-H460 cells at 0.35 to 0.7 uM incubated for 48 hrs by Western blotting analysis; format: functional, cell-based; details: dose 0.35-0.7 µM
NCI-H460 [24] = assay: Induction of ROS accumulation in human NCI-H460 cells at 0.7 to 5 uM incubated for 6 hrs by CM-H2DCFDA staining based flow cytometry analysis; format: functional, cell-based; details: dose 0.7-5 µM
[25] = system: Doxorubicin-resistant NCI-H460/R; assay: Inhibition of human Doxorubicin-resistant NCI-H460/R cells spheroid viability by CellTiter-Glo 3D viability assay; format: functional, cell-based
[26] = target: ATP-dependent translocase ABCB1 (Homo sapiens, UniProt P08183); assay: Inhibition of P-gp mediated drug efflux in human NCI-H460 cells assessed as accumulation of rhodamine-123 accumulation at 10 to 20 uM incubated for 1 hr by flow cytometry analysis; format: cell-based; details: nci-h460, 1 h, dose 10-20 µM
NCI-H460 [27] = assay: Effect on LC3-I expression in human NCI-H460 cells at 0.35 to 0.7 uM incubated for 48 hrs by Western blotting analysis; format: functional, cell-based; details: dose 0.35-0.7 µM
[28] = system: Paclitaxel-resistant DLD1-TxR cells; assay: Inhibition of human Paclitaxel-resistant DLD1-TxR cells spheroid viability by CellTiter-Glo 3D viability assay; format: functional, cell-based
NCI-H460 [29] = assay: Upregulation of p-histone H2A.X expression in human NCI-H460 cells at high concentration incubated for 48 hrs by Western blotting analysis; format: functional, cell-based
[30] = system: Doxorubicin-resistant NCI-H460/R; assay: Effect on human Doxorubicin-resistant NCI-H460/R cells […] assessed as change in diameter at 0.35 to 0.7 uM incubated for 48 hrs; format: functional, cell-based; details: dose 0.35-0.7 µM
NCI-H460 [31] = assay: Induction of apoptosis in human NCI-H460 cells at 0.35 to 0.7 uM incubated for 48 hrs by Annexin-V FITC/propidium iodide staining based flow cytometry analysis; format: functional, cell-based; details: dose 0.35-0.7 µM
NCI-H460 [32] = assay: Effect on PARP-1 expression in human NCI-H460 cells at 0.35 to 0.7 uM incubated for 48 hrs by Western blotting analysis; format: functional, cell-based; details: dose 0.35-0.7 µM
[33] = system: Paclitaxel-resistant DLD1-TxR cells; assay: Effect on human Paclitaxel-resistant DLD1-TxR cells […] assessed as change in compactness at 0.35 to 0.7 uM incubated for 48 hrs; format: functional, cell-based; details: dose 0.35-0.7 µM
NCI-H460 [34] = assay: Effect on human NCI-H460 cells […] assessed as change in circularity at 0.35 to 0.7 uM incubated for 48 hrs; format: functional, cell-based; details: dose 0.35-0.7 µM
DLD-1 [35] = assay: Effect on human DLD-1 cells […] assessed as change in diameter at 0.35 to 0.7 uM incubated for 48 hrs; format: functional, cell-based; details: dose 0.35-0.7 µM
NCI-H460 [36] = assay: Induction of cell cycle arrest in human NCI-H460 cells assessed as decrease in S phase cells at 0.35 to 0.7 uM incubated for 48 hrs by propidium iodide staining based flow cytometry analysis; format: functional; details: dose 0.35-0.7 µM
NCI-H460 [37] = assay: Inhibition of human NCI-H460 cells […] at 50 nM incubated for 48 hrs; format: functional, cell-based
NCI-H460 [38] = assay: Inhibition of cell proliferation in human NCI-H460 cells at 50 nM incubated for 48 hrs by BrdU incorporation assay; format: functional, cell-based

ATP-dependent translocase ABCB1, sequence (P08183 whole entry): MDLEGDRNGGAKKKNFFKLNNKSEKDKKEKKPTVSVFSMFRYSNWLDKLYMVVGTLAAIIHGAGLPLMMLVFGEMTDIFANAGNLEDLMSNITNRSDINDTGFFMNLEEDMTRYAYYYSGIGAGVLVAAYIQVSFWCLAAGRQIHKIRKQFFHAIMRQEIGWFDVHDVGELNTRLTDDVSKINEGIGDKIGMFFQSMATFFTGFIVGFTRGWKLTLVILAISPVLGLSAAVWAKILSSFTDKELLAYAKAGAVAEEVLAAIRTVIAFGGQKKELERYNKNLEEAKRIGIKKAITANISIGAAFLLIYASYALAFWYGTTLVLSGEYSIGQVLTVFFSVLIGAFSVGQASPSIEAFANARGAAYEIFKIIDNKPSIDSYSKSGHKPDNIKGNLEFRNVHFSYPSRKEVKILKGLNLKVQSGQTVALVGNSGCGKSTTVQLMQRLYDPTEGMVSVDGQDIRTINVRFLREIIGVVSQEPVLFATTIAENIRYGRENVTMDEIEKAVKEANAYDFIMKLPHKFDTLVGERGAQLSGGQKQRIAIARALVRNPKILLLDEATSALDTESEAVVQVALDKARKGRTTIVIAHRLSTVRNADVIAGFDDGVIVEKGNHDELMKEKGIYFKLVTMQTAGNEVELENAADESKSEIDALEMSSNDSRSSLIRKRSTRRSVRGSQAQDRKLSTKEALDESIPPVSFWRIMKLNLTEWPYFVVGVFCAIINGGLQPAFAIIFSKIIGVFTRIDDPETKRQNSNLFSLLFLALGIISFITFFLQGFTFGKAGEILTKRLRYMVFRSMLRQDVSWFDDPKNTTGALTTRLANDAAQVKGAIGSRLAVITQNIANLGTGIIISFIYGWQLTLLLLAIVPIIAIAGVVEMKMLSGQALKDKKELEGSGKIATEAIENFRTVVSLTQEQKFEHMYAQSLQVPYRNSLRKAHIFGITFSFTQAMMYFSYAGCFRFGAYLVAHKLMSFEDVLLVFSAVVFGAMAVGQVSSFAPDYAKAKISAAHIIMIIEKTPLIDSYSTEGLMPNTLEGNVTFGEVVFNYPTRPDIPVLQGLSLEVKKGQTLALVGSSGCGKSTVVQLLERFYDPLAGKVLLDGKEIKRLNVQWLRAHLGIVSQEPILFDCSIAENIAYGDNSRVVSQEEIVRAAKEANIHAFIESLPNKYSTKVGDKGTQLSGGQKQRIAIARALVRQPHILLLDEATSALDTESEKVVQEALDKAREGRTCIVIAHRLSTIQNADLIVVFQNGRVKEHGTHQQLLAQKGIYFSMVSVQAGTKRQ

SMILES: COC(=O)c1c2c(c(C)[n+]([O-])c1C)C(=O)C=C(NCc1ccccc1)C2=O
RatioGI50 (NCI/ADR-RES): 40

SMILES: COc1cc([C@@H]2c3cc4c(cc3[C@@H](O[C@@H]3O[C@@H]5CO[C@@H](C)O[C@H]5[C@H](O)[C@H]3O)[C@H]3COC(=O)[C@H]23)OCO4)cc(OC)c1O
Activity [1]: inactive

inhibition (INH) [26]: Active
SMILES: COC(=O)c1c2c(c[n+]([O-])c1C)C(=O)C=C(NCc1ccccc1)C2=O
Activity [2]: inactive
Activity (MCF-12A): Non-Toxic
inhibition (DLD-1 [3]): Active
Activity (NCI-H460 [4]): Active
Activity [5]: inactive
Activity (NCI-H460 [6]): Active
Activity (NCI-H460 [7]): inactive
Activity [8]: inactive
Activity (NCI-H460 [9]): Active
Activity (NCI-H460 [10]): inactive
Activity (NCI-H460 [11]): Active
inhibition (NCI-H460 [12]): Active
Activity (NCI-H460 [13]): inactive
Activity [14]: inactive
Activity (NCI-H460 [15]): Active
inhibition (NCI-H460 [16]): Active
inhibition (NCI-H460 [17]): Active
Activity (NCI-H460 [18]): Active
Activity (DLD-1 [19]): inactive
Activity (NCI-H460 [20]): inactive
Activity (MRC5): Non-Toxic
Activity (NCI-H460 [21]): inactive
Activity (DLD-1 [22]): inactive
Activity (NCI-H460 [23]): inactive
Activity (NCI-H460 [24]): Active
inhibition [25]: Active
Activity (NCI-H460 [27]): inactive
inhibition [28]: Active
Activity (NCI-H460 [29]): Active
Activity [30]: inactive
Activity (NCI-H460 [31]): inactive
Activity (NCI-H460 [32]): inactive
Activity [33]: inactive
Activity (NCI-H460 [34]): inactive
Activity (DLD-1 [35]): inactive
Activity (NCI-H460 [36]): Active

SMILES: COc1cccc2c1C(=O)c1c(O)c3c(c(O)c1C2=O)C[C@@](O)(C(=O)CO)C[C@@H]3O[C@H]1C[C@H](N)[C@H](O)[C@H](C)O1
inhibition (NCI-H460 [37]): inactive
inhibition (NCI-H460 [38]): Active
